Measurements reported in US10759790B2, “Heterocyclic constrained tricyclic sulfonamides as anti-cancer agents” (ICAHN SCHOOL OF MEDICINE AT MOUNT SINAI, priority 2015, dated 2020).

System: H1650 lung cancer cells
Test: Cell viability assay (MTT, IC50 determination)
Format: cell-based
Settings: Homo sapiens, NCI-H1650, 48 h, read-out: H1650 cell viability IC50
Method: Cell viability assays were performed according to Denizot, F. and R. Lang, Journal of Immunological Methods, 1986. 89(22): p. 271-277. H1650 lung cancer cells were plated at 150,000 cells per well in a 12 well plate. Twenty-four hours after plating, cells were treated as described with increasing concentrations of drug and control. Forty-eight hours after drug treatment, cells were treated with 100 μL of 3-(4,5-Dimethylthiazol-2-yl)-2,5-diphenyltetrazolium bromide (MTT) and incubated for 2 hours at 37 C. The MTT solution was subsequently replaced with 300 μL of n-propyl alcohol and re-aliquoted to a 96 well plate. Spectrophotometric analysis of each solution was performed using a 96 well plate reader at 600 nm in triplicate.

Row | Structure (SMILES) | IC50 [µM]
1 | CC(=O)N1C[C@@H](NS(=O)(=O)c2ccc(OC(F)(F)F)cc2)[C@H](O)[C@@H](N2c3ccccc3Oc3ccccc32)C1 [Example 18a, N-((3R,4R,5S)-1-acetyl-4-hydroxy-5-(10H-phenoxazin-10-yl)piperidin-3-yl)-4-(trifluoromethoxy)benzenesulfonamide] | 25

Same assay, conditions: Homo sapiens, NCI-H1650; H1650 lung cancer cells, MTT, 48 hours after drug treatment; read-out: H1650 cell viability IC50

Row | Structure (SMILES) | IC50 [µM]
2 | O=S(=O)(N[C@@H]1COC[C@H](N2c3ccccc3Oc3cc(F)ccc32)[C@H]1O)c1ccc(OC(F)(F)F)cc1 [Example 11, N-((3R,4R,5S)-5-(3-fluoro-10H-phenoxazin-10-yl)-4-hydroxytetrahydro-2H-pyran-3-yl)-4-(trifluoromethoxy)benzenesulfonamide] | 10
3 | O=S(=O)(N[C@@H]1CNCC(N2c3ccccc3Oc3ccccc32)[C@H]1O)c1ccc(OC(F)(F)F)cc1 (mixture of isomers) [Example 17, Rac-N-((3R,4R,5S)-4-hydroxy-5-(10H-phenoxazin-10-yl)piperidin-3-yl)-4-(trifluoromethoxy)benzenesulfonamide] | 5
4 | O=S(=O)(N[C@@H]1COC[C@H](n2c3ccc(F)cc3c3cc(F)ccc32)[C@H]1O)c1ccc(OC(F)(F)F)cc1 [Example 3, N-((3R,4R,5S)-5-(3,6-difluoro-9H-carbazol-9-yl)-4-hydroxytetrahydro-2H-pyran-3-yl)-4-(trifluoromethoxy)benzenesulfonamide] | 10
5 | CC(C)(C)OC(=O)Nc1ccc(S(=O)(=O)N[C@@H]2COC[C@H](N3c4ccccc4Oc4ccccc43)[C@H]2O)cc1 [Example 66, tert-butyl (4-(N-((3R,4R,5S)-4-hydroxy-5-(10H-phenoxazin-10-yl)tetrahydro-2H-pyran-3-yl)sulfamoyl)phenyl)carbamate] | 5
6 | CC(C)(C)OC(=O)N1CC(N2c3ccccc3Oc3ccccc32)[C@@H](O)[C@H](NS(=O)(=O)c2ccc(OC(F)(F)F)cc2)C1 (mixture of isomers) [Example 16, Rac-(3S,4R,5R)-tert-butyl 4-hydroxy-3-(10H-phenoxazin-10-yl)-5-(4-(trifluoromethoxy)phenylsulfonamido)piperidine-1-carboxylate] | 10
7 | O=S(=O)(N[C@@H]1COC[C@H](N2c3ccccc3Oc3ccccc32)[C@H]1O)c1ccc(C(F)(F)F)nc1 [Example 63, N-((3R,4R,5S)-4-hydroxy-5-(10H-phenoxazin-10-yl)tetrahydro-2H-pyran-3-yl)-6-(trifluoromethyl)pyridine-3-sulfonamide] | 20

Now from value to molecule:

Row | IC50 [µM] | Structure (SMILES)
8 | 5 | CC(C)(C)c1ccc2c(c1)c1ccccc1n2[C@H]1CNC[C@@H](NS(=O)(=O)c2ccc(OC(F)(F)F)cc2)[C@@H]1O [Example 53a, N-((3R,4R,5S)-5-(3-(tert-butyl)-9H-carbazol-9-yl)-4-hydroxypiperidin-3-yl)-4-(trifluoromethoxy)benzenesulfonamide]
9 | 15 | CN1C[C@H](NS(=O)(=O)c2ccc(OC(F)(F)F)cc2)[C@@H](O)[C@H](N2c3ccccc3Oc3ccccc32)C1 [Example 19b, N-((3S,4S,5R)-4-hydroxy-1-methyl-5-(10H-phenoxazin-10-yl)piperidin-3-yl)-4-(trifluoromethoxy)benzenesulfonamide]
10 | 5 | CC(C)(C)OC(=O)N1C[C@@H](NS(=O)(=O)c2ccc(OC(F)(F)F)cc2)[C@H](O)[C@@H](n2c3ccccc3c3ccccc32)C1 [Example 52a, (3S,4R,5R)-tert-butyl 3-(9H-carbazol-9-yl)-4-hydroxy-5-(4-(trifluoromethoxy)phenylsulfonamido)piperidine-1-carboxylate]
11 | 10 | CC(C)(C)OC(=O)N1C[C@@H](NS(=O)(=O)c2ccc(OC(F)(F)F)cc2)[C@H](O)[C@@H](N2c3ccccc3Oc3ccccc32)C1 [Example 16a, (3S,4R,5R)-tert-butyl 4-hydroxy-3-(10H-phenoxazin-10-yl)-5-(4-(trifluoromethoxy)phenylsulfonamido)piperidine-1-carboxylate]

Same assay, conditions: at 40 uM; H1650 lung cancer cells, MTT, 48 hours

Row | Structure (SMILES) | H1650 cell viability, % at 40 uM [% at 40 uM]
12 | Nc1cccc(S(=O)(=O)N[C@@H]2COC[C@H](N3c4ccccc4Oc4ccccc43)[C@H]2O)c1 [Example 69, 3-amino-N-((3R,4R,5S)-4-hydroxy-5-(10H-phenoxazin-10-yl)tetrahydro-2H-pyran-3-yl)benzenesulfonamide] | 54
